The assay addresses Envelope glycoprotein gp160 (Human immunodeficiency virus 1, UniProt Q6QLK5). Description: cell-free HIV fusion peptide-binding blockers – biochemical, uHTS, fluorescence dequenching, […] (AID 1986).

We go through 1 compound from ChEMBL document CHEMBL1201862, “PubChem BioAssay data set” (2004).

Active and inactive are the calls of the source. Cut-off read from the data, not from the text of the source: actives have a measured IC50 and inactives only a lower limit.

Envelope glycoprotein gp160, sequence (Q6QLK5 whole entry, the tested form may be a part): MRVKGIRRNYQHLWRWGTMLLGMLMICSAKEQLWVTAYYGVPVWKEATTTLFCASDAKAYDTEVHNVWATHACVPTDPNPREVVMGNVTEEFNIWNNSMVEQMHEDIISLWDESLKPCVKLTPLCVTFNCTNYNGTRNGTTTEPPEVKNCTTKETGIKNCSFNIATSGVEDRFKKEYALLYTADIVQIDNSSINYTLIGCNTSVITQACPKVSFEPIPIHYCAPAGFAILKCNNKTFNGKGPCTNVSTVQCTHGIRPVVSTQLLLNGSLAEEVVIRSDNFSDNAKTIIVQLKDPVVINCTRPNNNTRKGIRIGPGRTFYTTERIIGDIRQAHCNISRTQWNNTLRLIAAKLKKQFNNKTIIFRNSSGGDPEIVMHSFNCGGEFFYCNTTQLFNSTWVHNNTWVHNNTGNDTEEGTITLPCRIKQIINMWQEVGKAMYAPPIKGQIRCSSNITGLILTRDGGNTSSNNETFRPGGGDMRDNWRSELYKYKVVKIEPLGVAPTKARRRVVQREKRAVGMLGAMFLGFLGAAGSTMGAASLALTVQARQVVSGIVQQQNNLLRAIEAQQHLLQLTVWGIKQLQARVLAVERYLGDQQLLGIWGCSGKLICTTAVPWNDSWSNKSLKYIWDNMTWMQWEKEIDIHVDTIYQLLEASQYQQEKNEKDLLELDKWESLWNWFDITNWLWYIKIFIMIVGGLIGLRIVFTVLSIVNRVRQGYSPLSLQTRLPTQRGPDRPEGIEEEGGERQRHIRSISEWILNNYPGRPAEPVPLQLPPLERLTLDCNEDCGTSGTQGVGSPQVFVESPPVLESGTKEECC

In general, IC50 refers to the concentration needed to halve the response being measured. As for `COc1ccc(C(=O)/C=C/c2ccc(-c3ccccc3)cc2)cc1CSCC(=O)O`, the IC50 is 21.5 µM (active).
